Reference: ChEMBL document CHEMBL1139638, “Synthesis and biological evaluation of chalcones and their derived pyrazoles as potential cytotoxic agents” (Bioorg Med Chem Lett, 2005)
Where “and” joins values, the source holds several entries; their conditions need not be identical. Equal values may be shown once.

Assays:
[1] = tested on: HEp-2; experiment: Antiproliferative activity against human cancer Hep-2 cell line; type: functional, cell-based
[2] = tested on: HOP-62; experiment: Antiproliferative activity against human cancer HOP-62 cell line; type: functional, cell-based
[3] = tested on: HCT-15; experiment: Antiproliferative activity against human colon cancer HCT-15 cell line; type: functional, cell-based
[4] = tested on: OVCAR-5; experiment: Antiproliferative activity against human cancer OVCAR-5 cell line; type: functional, cell-based
[5] = tested on: SiHa; experiment: Antiproliferative activity against human SIHA cell line; type: functional, cell-based
[6] = tested on: SW-620; experiment: Inhibitory concentration against human colon cancer SW-620 cell line; type: functional, cell-based
[7] = tested on: HT-29; experiment: Antiproliferative activity against Colon cancer HT-29 cell line; type: functional, cell-based, Homo sapiens
[8] = tested on: A549; experiment: Antiproliferative activity against human cancer A-549 cell line; type: functional, cell-based
[9] = tested on: PC-3; experiment: Antiproliferative activity against prostate cancer PC-3 cell line; type: functional, cell-based, Homo sapiens
[10] = tested on: SNB-78; experiment: Antiproliferative activity against human cancer SNB-78 cell line; type: functional, cell-based
[11] = tested on: DU-145; experiment: Antiproliferative activity against human cancer DU-145 cell line; type: functional, cell-based
[12] = tested on: SK-OV-3; experiment: Antiproliferative activity against human cancer SKOV-3 cell line; type: functional, cell-based
[13] = tested on: SW-620; experiment: Antiproliferative activity against colon cancer SW-620 cell line; type: functional, cell-based; settings: Homo sapiens

IC50 [3] [µM]	IC50 ([4]; Homo sapiens, OVCAR-5) [µM]	IC50 ([6]; Homo sapiens, SW-620) [µM]	IC50 ([7]; Homo sapiens, HT-29) [µM]	IC50 ([8]; Homo sapiens, A549) [µM]	IC50 ([9]; Homo sapiens, PC-3) [µM]	IC50 ([11]; Homo sapiens, DU-145) [µM]	SMILES	IC50 [1] [µM]	IC50 ([2]; Homo sapiens, HOP-62) [µM]	IC50 ([5]; Homo sapiens, SiHa) [µM]	IC50 ([10]; Homo sapiens, SNB-78) [µM]	further results
6.55	9.23						COc1cc(/C=C/C(=O)c2cc(OC)c(OC)c(OC)c2)cc(OC)c1OC	7.75	10	8.55		
12	8.76	8.63	8.43	10			COc1ccc(C2NN=C(c3cc(OC)c(OC)c(OC)c3)C2O)cc1OC (stereo not drawn)		10.7			
9.45	8.65	8.41	11.1	15.1	34.6		COc1cc(C2=NNC(c3ccc(Cl)cc3)C2O)cc(OC)c1OC (stereo not drawn)		20.4	56.4		
6.01	9.95	10	5.62	7.58	13.3	35.1	COc1cc(-c2cc(-c3cc(OC)c(OC)c(OC)c3)[nH]n2)cc(OC)c1OC	6.43		25	22	
8.45	7.15	5.85	6.01	5.72			COc1cc(C2=NNC(c3ccc(F)cc3)C2O)cc(OC)c1OC (stereo not drawn)		6.55			
8.9			15.6		18.1	48	COc1cc(-c2nn(C(C)=O)c(-c3ccc4c(c3)OCO4)c2OC(C)=O)cc(OC)c1OC	61.6	18.4	58.1	33	IC50 [12]: 39.1 µM
4.9	9		7.08	8.07	11.6	14.9	COc1cccc(C(=O)/C=C/c2cc(OC)c(OC)c(OC)c2)c1	13.7	10.1	10.9	10	
	9.54	5.15			15.8	24	COc1ccc(-c2cc(-c3cc(OC)c(OC)c(OC)c3)[nH]n2)cc1			15.9		IC50 ([9]; pc-3): 11.1 µM; IC50 ([10]; snb-78): 21 µM and 50 µM; IC50 ([2]; hop-62): 4.81 µM and 0.65 µM; IC50 ([4]; ovcar-5): 7.85 µM; IC50 ([6]; sw-620): 3.41 µM; IC50 ([11]; du-145): 27 µM; IC50 ([7]; ht-29): 2.95 µM and 0.62 µM; IC50 ([8]; a549): 4.35 µM and 1.01 µM; IC50 ([5]; siha): 14.5 µM
24	16.8				24.1	28.1	COc1cc(C(=O)/C=C/c2ccc(Cl)cc2)cc(OC)c1OC	12	26.9	40	25.4	
16	16.7	16.1	10.4	10			COc1ccc(-c2cc(-c3cc(OC)c(OC)c(OC)c3)nn2C(C)=O)cc1OC		22.1	54.8		
7.75			8.37	12			COc1cc(/C=C/C(=O)c2ccc(OC(C)=O)cc2)cc(OC)c1OC	13.1	56.1	13.3		
7.85	7.05	7.35	5.95	7.2	28		COc1cccc(C2NN=C(c3cc(OC)c(OC)c(OC)c3)C2O)c1 (stereo not drawn)		8.1			
0.48	6.45	5.9	4.75	3.8	8.93	3.87	COc1cc(-c2cc(-c3ccc(F)cc3)[nH]n2)cc(OC)c1OC	3.81	0.56	1.08	22.4	
7.95	8.3	5.8	6.64	6.9	7.85	9.21	COc1ccc(/C=C/C(=O)c2cc(OC)c(OC)c(OC)c2)cc1OC	6.15	8.12	9.35	22.8	IC50 [12]: 6.09 µM
0.25	4.4	0.23	0.47	0.87	2.64		COc1ccc(-c2cc(-c3cc(OC)c(OC)c(OC)c3)[nH]n2)cc1OC	8.41	0.93	3.63		
0.96	13	2.67	0.96	1.07	15.2		COc1ccc(C2NN=C(c3cc(OC)c(OC)c(OC)c3)C2O)cc1 (stereo not drawn)	7.81	0.94	20.1		
7.75			20.2	19.2			COc1cc(C(=O)/C=C/c2cc(OC)c(OC)c(OC)c2)ccc1O	6.01	20.2	40.4		
7.75			10.5	15.6			COc1cc(C(=O)/C=C/c2cc(OC)c(OC)c(OC)c2)ccc1OC(C)=O	6.95	9.2	33		IC50 [12]: 8.35 µM
23.7	5.65				11.7	19.8	COc1cc(C(=O)/C=C/c2ccc3c(c2)OCO3)cc(OC)c1OC	10.1	9.61	12.8	16.7	
8.77	8.9		14.4	21.3	41.1	25.4	COc1cc(C(=O)/C=C/c2ccccc2)cc(OC)c1OC	7.55	20.5	36.5	22.8	IC50 [12]: 21 µM; IC50 [13]: 16 µM
6.45	8.61	4.96	8.09	15.8			COc1cc(-c2cc(-c3ccc(Cl)cc3)[nH]n2)cc(OC)c1OC		12.3		14	
	6.81	6.75	5.89	6.74	34.5	34.7	COc1cc(C2=NNC(c3ccc4c(c3)OCO4)C2O)cc(OC)c1OC (stereo not drawn)	40	20.3	43	53.7	
15.6	33	9.25	6.01	8.85	9.55	8.56	COc1cc(-c2cc(-c3ccc4c(c3)OCO4)[nH]n2)cc(OC)c1OC	34	13.5	10	74	
8.35	20.6	13.6	7.41	15.6	108	94.1	COc1cc(C2=NNC(c3cc(OC)c(OC)c(OC)c3)C2O)cc(OC)c1OC (stereo not drawn)		20.4	83		
15.8		8.45	12	8.96			COc1cc(/C=C/C(=O)c2ccccc2)cc(OC)c1OC	11.9	16.6	20.8		IC50 [12]: 56.5 µM
11.7	18.3				11.7	13.3	COc1cc(C(=O)/C=C/c2ccc(F)cc2)cc(OC)c1OC	10	24.7	7.92	13.8	
